According to the supplement of paper PMC5844555:

Key:
Assay in all cases: 3' UTR reporter interaction score (median-centred robust z-score of log2 firefly/Renilla activity); higher = less repression of the 3' UTR reporter
Conditions in all cases: HEK293T; 48 h
TP53 = test system: TP53
How it was run: (§1)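 The interaction score is based on the log-transformed firefly/Renilla luciferase ratio, scaled as a robust z-score within each plate by median and median absolute deviation and median-centred for each miRNA; more negative scores indicate interaction. It was averaged over at least two independent screens. Readings were taken 48 h after HEK293T cells (10,000/well, 96-well plates) were co-transfected by DharmaFECT Duo with 100 ng firefly luc2P 3' UTR reporter, 20 ng Renilla pRL-TK and 2.5 pmol miRNA mimic.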

MYB = test system: MYB
How it was run: as §1

EZH2 = test system: EZH2
How it was run: as §1

MYCN = test system: MYCN
How it was run: as §1

PHOX2B = test system: PHOX2B
How it was run: as §1

HRAS = test system: HRAS
How it was run: as §1

RB1 = test system: RB1
How it was run: as §1

MYC = test system: MYC
How it was run: as §1

FBXW7 = test system: FBXW7
How it was run: as §1

MYT1L = test system: MYT1L
How it was run: as §1

PHF6 = test system: PHF6
How it was run: as §1

BRCA2 = test system: BRCA2
How it was run: as §1

NOTCH1 = test system: NOTCH1
How it was run: as §1

ZEB2 = test system: ZEB2
How it was run: as §1

Row | Sequence | 3' UTR reporter interaction score (TP53) | 3' UTR reporter interaction score (MYB) | 3' UTR reporter interaction score (EZH2) | 3' UTR reporter interaction score (MYCN) | 3' UTR reporter interaction score (PHOX2B) | 3' UTR reporter interaction score (HRAS) | 3' UTR reporter interaction score (RB1) | 3' UTR reporter interaction score (MYC) | 3' UTR reporter interaction score (FBXW7) | 3' UTR reporter interaction score (MYT1L) | 3' UTR reporter interaction score (PHF6) | 3' UTR reporter interaction score (BRCA2) | 3' UTR reporter interaction score (NOTCH1) | 3' UTR reporter interaction score (ZEB2)
1 | GAAGGCGCUUCCCUUUAGAGC | -0.514 | 0.182 | -1.42 | 0.218 | 1.35 | -1.63 | 0.388 | -0.899 | 0.412 | 0.364 | 0.189 | 0.0383 | -0.268 | 0.676
2 | GAAGGCGCUUCCCUUUGGAGU | -0.237 | -0.216 | -1.48 | -0.406 | 2.09 | -1.8 | 0.389 | -1.08 | 0.348 | 0.212 | 0.395 | 0.864 | -0.115 | 1.47
3 | GAAGUGCUUCGAUUUUGGGGUGU | -1.53 | 0.012 | -0.43 | 0.643 | 0.548 | 0.659 | 2.22 | 0.42 | -0.253 | -0.424 | 0.808 | 0.244 | 0.231 | 0.378
4 | GAAGUGUGCCGUGGUGUGUCU | 0.832 | -0.373 | -0.113 | -0.199 | 1.74 | -0.384 | 0.538 | -0.0876 | 1.69 | -1.67 | -0.942 | -0.0229 | -0.516 | -0.231
5 | GAAGUUGUUCGUGGUGGAUUCG | -1.17 | 0.448 | -2.16 | -0.332 | -0.358 | 0.113 | 1.05 | 0.185 | -1.37 | -1.32 | -0.491 | 0.514 | 0.409 | 0.478
6 | GACACGGGCGACAGCUGCGGCCC | 0.243 | 0.262 | -0.294 | -0.202 | -0.471 | 0.13 | 1.37 | -0.271 | -0.302 | -0.281 | 1.16 | -0.257 | -0.641 | 0.917
7 | GACCUGGACAUGUUUGUGCCCAGU | -0.242 | -0.217 | -0.0513 | 0.492 | 0.605 | -0.318 | -0.469 | -0.104 | 0.534 | 0.464 | 0.792 | 0.214 | -0.107 | 2.18
8 | GAGCCAGUUGGACAGGAGC | 1 | 0.363 | -0.353 | 0.298 | 0.261 | 0.00377 | -0.775 | -0.0272 | 0.107 | 0.521 | -1.97 | -1.34 | -0.874 | -0.65
9 | GAGCUUAUUCAUAAAAGUGCAG | -1.36 | 0.663 | 0.564 | 0.314 | -0.299 | 0.562 | 2.05 | 1.07 | -1.75 | -2.82 | -0.038 | 0.117 | -0.458 | -1.29
10 | GAGGUUGUCCGUGGUGAGUUCG | -0.45 | 0.0834 | -0.239 | -0.211 | 0.511 | -0.768 | -0.327 | -2.33 | -1.94 | 0.00527 | -0.125 | -0.325 | 0.138 | 0.323
11 | GAGUGCCUUCUUUUGGAGCGU | -0.254 | -0.982 | 0.0213 | 0.414 | -3.88 | -0.294 | 0.093 | -0.339 | 0.805 | 1.25 | 2.96 | -0.0488 | -0.567 | -0.377
12 | GAUGAGCUCAUUGUAAUAUG | 0.29 | 0.0611 | 0.284 | 0.201 | -0.674 | 0.049 | 0.134 | -0.384 | 0.747 | 1.26 | -0.609 | -0.641 | -0.218 | -1.1
13 | GAUUGCUCUGCGUGCGGAAUCGAC | -0.352 | -0.474 | 0.471 | -0.19 | 0.972 | -0.851 | 0.524 | -2.18 | -0.34 | -1.1 | 0.0123 | 0.00588 | -0.0878 | -0.205
14 | GCAAAGCACACGGCCUGCAGAGA | -0.0423 | 1.11 | 0.138 | -0.217 | -0.597 | -0.313 | -1.65 | 0.499 | 0.141 | -0.692 | 1.65 | 0.0737 | 0.357 | 0.307
15 | GCACAUUACACGGUCGACCUCU | -0.315 | 0.761 | -0.1 | 0.192 | -1.13 | -0.25 | -0.0189 | -0.285 | 0.52 | -0.0362 | 0.116 | -0.107 | -0.223 | 1.19
16 | GCCCCUGGGCCUAUCCUAGAA | -0.179 | 0.244 | 0.389 | 0.221 | -0.0536 | -0.133 | 0.411 | -0.282 | 0.0138 | -0.294 | 2.01 | 0.566 | -0.931 | -0.237
17 | GCCUGCUGGGGUGGAACCUGG | -0.747 | 0.0969 | -0.39 | -0.962 | 0.0382 | -0.0157 | 1.37 | 0.0868 | -0.733 | -0.443 | 0.254 | 0.403 | -0.0223 | 0.26
18 | GCGACCCACUCUUGGUUUCCA | 0.384 | 0.396 | 0.786 | 0.0444 | 0.84 | -0.85 | -2.3 | -0.5 | 0.92 | -0.645 | -1.86 | -0.537 | 0.563 | -0.694
19 | GCGACCCAUACUUGGUUUCAG | -0.0561 | 0.445 | 1.08 | 0.527 | -1.24 | -0.348 | -1.26 | -0.469 | 0.104 | -5.03e-17 | -1.74 | 0.00941 | 0.351 | -0.392
